Test results as given in patent publication US20220127297A1, “Novel Antibacterial 3"-Derivatives Of 4,6-Disubstituted 2,5-Dideoxystreptamine Aminoglycoside Antibiotics” (AGILeBiotics B.V., priority 2018, published 2022).
Values after ≈ are worked out from the molar mass of the structure shown.

Tested on: E. coli (APH(3′)IIIa)
Assay: MIC 50, broth micro-dilution, E. coli expressing APH(3′)IIIa
Type: cell-based, Escherichia coli
Conditions: Escherichia coli, ATCC25922, ATCC25922 harboring plasmid encoding APH(3′)IIIa
Method in brief: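 E. coli ATCC 25922 carrying plasmid-borne resistance genes, grown with 50 μg/mL KanaA, were diluted to OD 0.1 in MH2 and exposed to two-fold compound dilutions (64 μM-31.3 nM final) for 18 h at 37° C. OD600 of triplicates was averaged; MIC50 was the first column reaching half maximum growth.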

Structure (SMILES)	MIC50 [µM]
N=C(NCC1CCCO1)NC1[C@@H](O)C(OC2[C@@H](F)[C@H](O[C@H]3OC(CN)[C@@H](O)CC3N)C(N)C[C@H]2NC(=O)[C@@H](O)CCN)O[C@H](CO)[C@H]1O (stereo partly drawn) [ABX5046, Tobra-AHB-F-Gua tetrahydrofuran-2-yl methyl]	0.5 (≈ 0.348 µg/mL)
C[C@@H](N)CCNC(=N)NC1[C@@H](O)C(OC2[C@@H](F)[C@H](O[C@H]3OC(CN)[C@@H](O)CC3N)C(N)C[C@H]2NC(=O)[C@@H](O)CCN)O[C@H](CO)[C@H]1O (stereo partly drawn) [ABX5047, Tobra-AHB-F-Gua (R) 3-amino-butyl]	0.25 (≈ 0.171 µg/mL)
N=C(NCc1ccncc1)NC1[C@@H](O)C(OC2[C@@H](F)[C@H](O[C@H]3OC(CN)[C@@H](O)CC3N)C(N)C[C@H]2NC(=O)[C@@H](O)CCN)O[C@H](CO)[C@H]1O (stereo partly drawn) [ABX5048, Tobra-AHB-F-Gua pyridin-4-yl methyl]	0.25 (≈ 0.176 µg/mL)
N=C(NCc1cnc[nH]1)NC1[C@@H](O)C(OC2[C@@H](F)[C@H](O[C@H]3OC(CN)[C@@H](O)CC3N)C(N)C[C@H]2NC(=O)[C@@H](O)CCN)O[C@H](CO)[C@H]1O (stereo partly drawn) [ABX5050, Tobra-AHB-F-Gua imidazol-5-yl methyl]	1 to 2 (≈ 0.693 to 1.39 µg/mL)
N=C(NCC1CCOC1)NC1[C@@H](O)C(OC2[C@@H](F)[C@H](O[C@H]3OC(CN)[C@@H](O)CC3N)C(N)C[C@H]2NC(=O)[C@@H](O)CCN)O[C@H](CO)[C@H]1O (stereo partly drawn) [ABX5051, Tobra-AHB-F-Gua tetrahydrofuran-3-yl methyl]	0.5 (≈ 0.348 µg/mL)
NCC[C@H](O)C(=O)N[C@@H]1C[C@H](N)[C@@H](O[C@H]2O[C@H](CN)[C@@H](O)[C@H](O)[C@H]2O)[C@H](O)[C@H]1O[C@H]1O[C@H](CO)[C@@H](O)[C@H](N)[C@H]1O [Amikacin, amikacin, reference compound]	16 to 32 (≈ 9.37 to 18.7 µg/mL)
